{"source": "ChEMBL document CHEMBL5584221", "about": "“Anti-inflammatory and Neuroprotective α-Pyrones from a Marine-Derived Strain of the Fungus Arthrinium arundinis and Their Heterologous Expression” (2024)", "key": {"BV-2 [1]": {"tested_on": "BV-2", "assay": "Antiinflammatory activity against mouse BV-2 cells assessed as inhibition of LPS-induced nitric oxide release at 20 uM measured after 24 hrs by Griess reagent based ELISA relative to control", "assay_type": "functional"}, "BV-2 [2]": {"tested_on": "BV-2", "assay": "Antiinflammatory activity against mouse BV-2 cells assessed as inhibition of LPS-induced decrease of IL-10 at 2 to 20 uM measured after 24 hrs by ELISA", "assay_type": "functional, cell-based", "conditions": "dose 2-20 µM"}, "BV-2 [3]": {"tested_on": "BV-2", "assay": "Antiinflammatory activity against mouse BV-2 cells assessed as inhibition of LPS-induced decrease of IL-4 at 2 to 20 uM measured after 24 hrs by ELISA", "assay_type": "functional, cell-based", "conditions": "dose 2-20 µM"}, "Cortical neurone [4]": {"tested_on": "Cortical neurone", "assay": "Neuroprotective activity against amyloid beta (25 to 35 residues)-induced cell death in ICR mouse primary cortical neurons assessed as increase in cell viability at 20 uM measured after 2 days by CCK-8 assay", "assay_type": "functional, cell-based", "conditions": "time 2.0 day"}, "BV-2 [5]": {"tested_on": "BV-2", "assay": "Antiinflammatory activity against mouse BV-2 cells assessed as effect on LPS-induced TGFbeta mRNA expression at 20 uM measured after 24 hrs by SYBR green staining based RT-PCR analysis", "assay_type": "functional, cell-based"}, "BV-2 [6]": {"tested_on": "BV-2", "assay": "Antiinflammatory activity against mouse BV-2 cells assessed as effect on LPS-induced Arg1 mRNA expression at 20 uM measured after 24 hrs by SYBR green staining based RT-PCR analysis", "assay_type": "functional, cell-based"}, "BV-2 [7]": {"tested_on": "BV-2", "assay": "Antiinflammatory activity against mouse BV-2 cells assessed as inhibition of LPS-induced IFN-gamma production at 2 to 20 uM measured after 24 hrs by ELISA", "assay_type": "functional, cell-based", "conditions": "dose 2-20 µM"}, "Cortical neurone [8]": {"tested_on": "Cortical neurone", "assay": "Neuroprotective activity against amyloid beta (25 to 35 residues)-induced neuritic atrophy in ICR mouse primary cortical neurons assessed as increase in length of MAP2-positive dendrite at 2 to 20 uM measured after 4 days by immunostaining based fluorescence microscopy", "assay_type": "functional, cell-based", "conditions": "dose 2-20 µM, time 4.0 day"}, "BV-2 [9]": {"tested_on": "BV-2", "assay": "Antiinflammatory activity against mouse BV-2 cells assessed as inhibition of LPS-induced iNOS mRNA expression at 20 uM measured after 24 hrs by SYBR green staining based RT-PCR analysis", "assay_type": "functional, cell-based"}, "BV-2 [10]": {"tested_on": "BV-2", "assay": "Antiinflammatory activity against mouse BV-2 cells assessed as effect on LPS-induced CD206 mRNA expression at 20 uM measured after 24 hrs by SYBR green staining based RT-PCR analysis", "assay_type": "functional, cell-based"}, "BV-2 [11]": {"tested_on": "BV-2", "assay": "Antiinflammatory activity against mouse BV-2 cells assessed as inhibition of LPS-induced TNF-alpha production at 2 to 20 uM measured after 24 hrs by ELISA", "assay_type": "functional, cell-based", "conditions": "dose 2-20 µM"}}, "note": "Activity calls are given as the source filed them. The rule behind the calls is not given here.", "data": [{"smiles": "CCC(C)/C=C(\\CO)CCCC(/C=C(C)/C=C(\\C)C[C@@H](C)c1oc(=O)c(C)c(O)c1C)C(=O)O", "note": "(some centres undefined)", "values": [{"measurement": "inhibition at 20 µM", "setting": "BV-2 [1]", "result": "> 50", "unit": "%"}]}, {"smiles": "CC1=C[C@@](CO)(CCCC(/C=C(C)/C=C(\\C)C[C@@H](C)c2oc(=O)c(C)c(O)c2C)C(=O)O)O[C@H]1C", "note": "(some centres undefined)", "values": [{"measurement": "inhibition at 20 µM", "setting": "BV-2 [1]", "result": "> 50", "unit": "%"}]}, {"smiles": "CC(=C\\C(CCCc1cc(C)c(C)o1)C(=O)O)/C=C(\\C)C[C@@H](C)c1oc(=O)c(C)c(O)c1C", "note": "(some centres undefined)", "values": [{"measurement": "inhibition", "setting": "BV-2 [2]", "result": "Active"}, {"measurement": "inhibition", "setting": "BV-2 [3]", "result": "Active"}, {"measurement": "inhibition at 20 µM", "setting": "BV-2 [1]", "result": "> 50", "unit": "%"}, {"measurement": "Activity", "setting": "Cortical neurone [4]", "result": "Active"}, {"measurement": "Activity", "setting": "BV-2 [5]", "result": "inactive"}, {"measurement": "Activity", "setting": "BV-2 [6]", "result": "inactive"}, {"measurement": "inhibition", "setting": "BV-2 [7]", "result": "Active"}, {"measurement": "Activity", "setting": "Cortical neurone [8]", "result": "Active"}, {"measurement": "inhibition", "setting": "BV-2 [9]", "result": "Active"}, {"measurement": "Activity", "setting": "BV-2 [10]", "result": "inactive"}, {"measurement": "inhibition", "setting": "BV-2 [11]", "result": "Active"}]}, {"smiles": "CCC(C)(O)/C=C(\\CO)CCCC(/C=C(C)/C=C(\\C)C[C@@H](C)c1oc(=O)c(C)c(O)c1C)C(=O)O", "note": "(some centres undefined)", "values": [{"measurement": "inhibition at 20 µM", "setting": "BV-2 [1]", "result": "> 50", "unit": "%"}]}]}
